O=CC(NS(=O)(=O)[O-])C(O)C(O)C(O)CO.[Na+] (stereo unspecified)
solubility (mole fraction)
Settings | 288.15 K | 293.15 K | 298.15 K | 303.15 K | 308.15 K | 313.15 K | 318.15 K
in ethanol | 8e-05 | 0.00012 | 0.00021 | 0.00027 | 0.00035 | 0.00046 | 0.00055
in methanol | 0.0004 | 0.00046 | 0.00052 | 0.00058 | 0.00064 | 0.0007 | 0.00076
in water | 0.0315 | 0.0345 | 0.0388 | 0.0444 | 0.0514 | 0.0601 | 0.0727
